Data as given in patent publication US12282021B2, “Stratification of acute myeloid leukaemia patients for sensitivity to kinase pathway inhibitor therapy” (KINOMICA LIMITED, priority 2017, dated 2025).

System: AML primary cells
Assay: Viability assay: ex-vivo drug testing of AML primary cells with kinase inhibitors (Guava ViaCount, 72h)
Assay type: cell-based, human
Details: for AML cases whose viability was reduced by >50% relative to DMSO control / number of AML cases whose viability was reduced by >50% relative to DMSO control / sensitivity of M4-Like and CDs+ cases versus M1-Like and CDs− cases (cell viability): 72h; for AML cases whose viability was reduced by >50% relative to DMSO control / number of AML cases whose viability was reduced by >50% relative to DMSO control: ex vivo; for sensitivity of M4-Like and CDs+ cases versus M1-Like and CDs− cases (cell viability): 1 μM PAKi, 10 μM FLT3/PKCi (FIG. 5A-B)
Experimental: The study was performed in 36 randomly selected primary samples of mononuclear cells extracted from the peripheral blood of AML patients at diagnosis. Experiments were performed as described below to determine the in vitro viability of the cells in response to treatment with inhibitors of the kinases FLT3/PKC (midostaurin, FLT3/PKCi), PAK (PF-3758309 PAKi), CK2 (silmitasertib CK2i) and MEK (trametinib, MEKi) The P38 inhibitor (P38i) TAK-715 was included as a negative control. Cells obtained from of 36 AML patients with well annotated clinical data were treated with these compounds for 72h.
The study was performed in 36 primary samples of mononuclear cells extracted from the peripheral blood of AML patients at diagnosis. Samples were randomly selected from the BCI tissue bank collection. Initially, 45 samples were included in the study but nine were later excluded because these were not viable in the ex-vivo experiments. Material availability allowed proteomics and mass cytometry analysis of 30 samples and DNA sequencing of 27 samples. Ex-vivo drug testing was performed in quadruplicate sampling replicates and viability values averaged and expressed relative to vehicle control.
Ex-vivo drug testing of AML primary cells was as previously described in Casado P, Rodriguez-Prados J C, Cosulich S C, et al. Kinase-substrate enrichment analysis provides insights into the heterogeneity of signaling pathway activation in leukemia cells. Sci Signal. 2013; 6(268):rs6. Briefly, cells were re-suspended in MS-5 conditioned IMDM medium, seeded in 96 well plates and treated with vehicle or 1 to 10000 nM of the indicated inhibitors for 72h. Cells were stained with Guava ViaCount reagent and cell number and viability was measured. Flow cytometry data were analyzed using CytoSoft (v2.5.7).
Mass cytometry was used to simultaneously measure the surface expression of 17 differentiation markers (CD3, CD7, CD11b, CD14, CD15, CD16, CD19, CD33, CD34, CD38, CD44, CD45, CD64, CD117, CD123, CD184, HLA-DR) in mononuclear cells extracted from the peripheral blood of 30 AML patients. Label free quantitative phosphoproteomics based on TiO2 phosphoenrichment was used to quantify>5,000 phosphorylation sites in the same AML primary samples and KSEA technology was applied to infer kinase activity from the phosphoproteomics data. Gene ontology enrichment was calculated based on the genes that code for the proteins where the phosphorylation sites were detected using DAVID software. Guava EasyCyte Flow Cytometry was used to determine cell viability after the treatment of the same patient samples with 5 kinase inhibitors (PF-3758309, Midostaurin, silmitasertib, trametinib and TAK715 aiming to target the kinases PAK, Flt-3, Casein Kinase 2, MEK and P38, respectively).

[1] = 15 cases positive for RAS/MEK/ERK activation

Structure (SMILES)	AML cases whose viability was reduced by >50% relative to DMSO control (1 μM dose, 36 AML cases) [%]	number of AML cases whose viability was reduced by >50% relative to DMSO control (1 μM dose, 36 AML cases)	sensitivity of M4-Like and CDs+ cases versus M1-Like and CDs− cases (cell viability)	effect of FLT3-ITD status on the responses of cells (FIG. 7F and FIG. 14B)	sensitivity of samples positive for either CDs or phosphorylation on GSK3A or PCKδ versus other cases (FIG. 7F and FIG. 14B)	potency relative to the other compounds tested (1 μM dose, 36 AML cases)	cases positive for RAS/MEK/ERK activation that showed high responses [1] [%]	number of cases positive for RAS/MEK/ERK activation that showed high responses [1]
CO[C@@H]1[C@H](N(C)C(=O)c2ccccc2)C[C@H]2O[C@]1(C)n1c3ccccc3c3c4c(c5c6ccccc6n2c5c31)C(=O)NC4 [FLT3/PKCi, midostaurin]	25	9/36	more sensitive	did not have an effect	more sensitive			
O=C(O)c1ccc2c(c1)nc(Nc1cccc(Cl)c1)c1ccncc12 [CK2i, silmitasertib]	22	8/36						
CCc1nc(-c2cccc(C)c2)c(-c2ccnc(NC(=O)c3ccccc3)c2)s1 [P38i, TAK-715]	8	3 AML cases	no differences					
Cc1nc(Nc2[nH]nc3c2CN(C(=O)N[C@H](CN(C)C)c2ccccc2)C3(C)C)c2sccc2n1 [PAKi, PF-3758309]	50	18/36	more sensitive			most potent of all the compounds tested		
CC(=O)Nc1cccc(-n2c(=O)n(C3CC3)c(=O)c3c(Nc4ccc(I)cc4F)n(C)c(=O)c(C)c32)c1 [MEKi, trametinib]	22	8/36					~50	7/15
